Source: patent publication US8642544B2, “N-terminus conformationally constrained GLP-1 receptor agonist compounds” (Amylin Pharmaceuticals, LLC, priority 2009, dated 2014)

Tested on: NIH/Swiss female mice
Experiment: in vivo basal glucose lowering assay
Conditions: Table 1, result in words (inactive / similar to GLP-1), subcutaneous injection
Protocol: Some compounds shown in Table 1 below were analyzed in an in vivo basal glucose lowering assay using the following procedure: A subcutaneous injection of either 200 μl phosphate-buffered saline (PBS) vehicle or test article was given immediately following baseline glucose (t=0) to NIH/Swiss female mice. Tail blood glucose samples were measured at t=2 and 4 hours post dose using a OneTouch® Ultra® (LifeScan, Inc., a Johnson & Johnson Company, Milpitas, Calif.). Body weight was measured daily. Significant test sample effects were identified by ANOVA (p<0.05), followed by Dunnett's post test using GraphPad Prism version 4.00 for Windows (GraphPad Software, San Diego Calif.).

Row | SMILES | In Vivo Glucose-Lowering Assay
1 | CC[C@H](C)[C@H](NC(=O)[C@H](Cc1ccccc1)NC(=O)[C@H](CC(C)C)NC(=O)[C@H](CCCNC(=N)N)NC(=O)[C@@H](NC(=O)[C@H](C)NC(=O)[C@H](CCC(=O)O)NC(=O)[C@H](CCC(=O)O)NC(=O)[C@H](CCC(=O)O)NC(=O)[C@H](CC(C)C)NC(=O)[C@H](CCC(N)=O)NC(=O)[C@H](CCCCN)NC(=O)[C@H](CO)NC(=O)[C@H](CC(C)C)NC(=O)[C@H](CC(=O)O)NC(=O)[C@H](CO)NC(=O)[C@@H](NC(=O)[C@H](Cc1ccccc1)NC(=O)[C@@H](NC(=O)[C@H]1CCCN(C(=O)[C@@H]2CCCN(C(=O)[C@H](C)NC(=O)[C@@H](N)Cc3c[nH]cn3)C2)C1)[C@@H](C)O)[C@@H](C)O)C(C)C)C(=O)N[C@@H](CCC(=O)O)C(=O)N[C@@H](Cc1c[nH]c2ccccc12)C(=O)N[C@@H](CC(C)C)C(=O)N[C@@H](CCCCN)C(=O)N[C@@H](CCC(N)=O)C(=O)NCC(=O)NCC(=O)N1CCC[C@H]1C(=O)N[C@@H](CO)C(=O)N[C@@H](CCCCN)C(=O)N[C@@H](CCC(=O)O)C(=O)N[C@H](C(=O)N[C@H](C(=O)N[C@@H](CO)C(N)=O)[C@@H](C)CC)[C@@H](C)CC [15A] | inactive
2 | CC[C@H](C)[C@H](NC(=O)[C@H](Cc1ccccc1)NC(=O)[C@H](CC(C)C)NC(=O)[C@H](CCCNC(=N)N)NC(=O)[C@@H](NC(=O)[C@H](C)NC(=O)[C@H](CCC(=O)O)NC(=O)[C@H](CCC(=O)O)NC(=O)[C@H](CCC(=O)O)NC(=O)[C@H](CC(C)C)NC(=O)[C@H](CCC(N)=O)NC(=O)[C@H](CCCCN)NC(=O)[C@H](CO)NC(=O)[C@H](CC(C)C)NC(=O)[C@H](CC(=O)O)NC(=O)[C@H](CO)NC(=O)[C@@H](NC(=O)[C@H](Cc1ccccc1)NC(=O)[C@@H](NC(=O)CNC(=O)[C@@H]1CCCN(C(=O)[C@H]2CCCN(C(=O)[C@@H](N)Cc3c[nH]cn3)C2)C1)[C@@H](C)O)[C@@H](C)O)C(C)C)C(=O)N[C@@H](CCC(=O)O)C(=O)N[C@@H](Cc1c[nH]c2ccccc12)C(=O)N[C@@H](CC(C)C)C(=O)N[C@@H](CCCCN)C(=O)N[C@@H](CCC(N)=O)C(=O)NCC(=O)NCC(=O)N1CCC[C@H]1C(=O)N[C@@H](CO)C(=O)N[C@@H](CCCCN)C(=O)N[C@@H](CCC(=O)O)C(=O)N[C@H](C(=O)N[C@H](C(=O)N[C@@H](CO)C(N)=O)[C@@H](C)CC)[C@@H](C)CC [15D] | inactive
3 | CC[C@H](C)[C@H](NC(=O)[C@H](Cc1ccccc1)NC(=O)[C@H](CC(C)C)NC(=O)[C@H](CCCNC(=N)N)NC(=O)[C@@H](NC(=O)[C@H](C)NC(=O)[C@H](CCC(=O)O)NC(=O)[C@H](CCC(=O)O)NC(=O)[C@H](CCC(=O)O)NC(=O)[C@H](CC(C)C)NC(=O)[C@H](CCC(N)=O)NC(=O)[C@H](CCCCN)NC(=O)[C@H](CO)NC(=O)[C@H](CC(C)C)NC(=O)[C@H](CC(=O)O)NC(=O)[C@H](CO)NC(=O)[C@@H](NC(=O)[C@H](Cc1ccccc1)NC(=O)[C@@H](NC(=O)CNC(=O)[C@H]1CCCN(C(=O)[C@@H]2CCCN(C(=O)[C@@H](N)Cc3c[nH]cn3)C2)C1)[C@@H](C)O)[C@@H](C)O)C(C)C)C(=O)N[C@@H](CCC(=O)O)C(=O)N[C@@H](Cc1c[nH]c2ccccc12)C(=O)N[C@@H](CC(C)C)C(=O)N[C@@H](CCCCN)C(=O)N[C@@H](CCC(N)=O)C(=O)NCC(=O)NCC(=O)N1CCC[C@H]1C(=O)N[C@@H](CO)C(=O)N[C@@H](CCCCN)C(=O)N[C@@H](CCC(=O)O)C(=O)N[C@H](C(=O)N[C@H](C(=O)N[C@@H](CO)C(N)=O)[C@@H](C)CC)[C@@H](C)CC [15C] | inactive
